Laboratory results: ChEMBL document CHEMBL1697723, “A predictive ligand-based Bayesian model for human drug-induced liver injury” (Drug Metab Dispos, 2010)

test system: Hepatotoxicity; test: Human drug-induced liver injury (DILI) modelling dataset from Ekins et al; details: not given

Compound	Hepatotoxicity
CN(C)C(=O)Oc1cc(OC(=O)N(C)C)cc(C(O)CNC(C)(C)C)c1 (stereo not given) [BAMBUTEROL]	DILI negative (training set)
CC1=C(C(=O)O)N2C(=O)[C@@H](NC(=O)[C@H](N)c3ccc(O)cc3)[C@H]2SC1 [CEFADROXIL]	DILI positive (test set)
CC(=O)Nc1cccc(O)c1 [METACETAMOL]	DILI negative (training set)
C#C[C@]1(O)CC[C@H]2[C@@H]3CCc4cc(OC)ccc4[C@H]3CC[C@@]21C [MESTRANOL]	DILI positive (test set)
O=c1[nH]c(=O)n([C@H]2C[C@H](O)[C@@H](CO)O2)cc1F [FLOXURIDINE]	DILI positive (training set)
O=C1O[C@H]([C@@H](O)CO)C(O)=C1O [ASCORBIC ACID]	DILI negative (training set)
C[C@H]1O[C@@H](O[C@H]2[C@@H](O)C[C@H](O[C@H]3[C@@H](O)C[C@H](O[C@H]4CC[C@@]5(C)[C@H](CC[C@@H]6[C@@H]5C[C@@H](O)[C@]5(C)[C@@H](C7=CC(=O)OC7)CC[C@]65O)C4)O[C@@H]3C)O[C@@H]2C)C[C@H](O)[C@@H]1O [DIGOXIN]	DILI negative (training set)
CN1C[C@H](C(=O)N[C@]2(C)O[C@@]3(O)[C@@H]4CCCN4C(=O)[C@H](Cc4ccccc4)N3C2=O)C=C2c3cccc4[nH]cc(c34)C[C@H]21.CN1C[C@H](C(=O)N[C@]2(C)O[C@@]3(O)[C@@H]4CCCN4C(=O)[C@H](Cc4ccccc4)N3C2=O)C=C2c3cccc4[nH]cc(c34)C[C@H]21.O=C(O)C(O)C(O)C(=O)O [ERGOTAMINE TARTRATE]	DILI negative (test set)
[N-]=[N+]=CC(=O)OC[C@H](N)C(=O)O [AZASERINE]	DILI positive (training set)
Clc1ccc(COC(Cn2ccnc2)c2ccc(Cl)cc2Cl)cc1.O=[N+]([O-])O (stereo not given) [ECONAZOLE NITRATE]	DILI negative (test set)
CN1c2ccccc2C(NCCCCCCC(=O)O)c2ccc(Cl)cc2S1(=O)=O (stereo not given) [TIANEPTINE]	DILI positive (training set)
CCC[C@@H]1C[C@@H](C(=O)N[C@@H]([C@H]2O[C@H](SC)[C@H](O)[C@@H](O)[C@H]2O)[C@H](C)Cl)N(C)C1.Cl [CLINDAMYCIN HYDROCHLORIDE]	DILI positive (test set)
Nc1nc(=O)c2c([nH]1)NCC(CNc1ccc(C(=O)N[C@@H](CCC(=O)[O-])C(=O)[O-])cc1)N2C=O.[Ca+2] (stereo not given in full) [LEUCOVORIN CALCIUM]	DILI negative (test set)
C[C@H]1[C@H](NC(=O)/C(=N\OC(C)(C)C(=O)O)c2csc(N)n2)C(=O)N1S(=O)(=O)O [AZTREONAM]	DILI negative (training set)
Brc1ccccc1 [BROMOBENZENE]	DILI positive (test set)
CC1CN(c2cc3c(cc2F)c(=O)c(C(=O)O)cn3-c2ccc(F)cc2F)CCN1 (stereo not given) [TEMAFLOXACIN]	DILI positive (test set)
COC(=O)Nc1nc2ccc(C(=O)c3ccccc3)cc2[nH]1 [MEBENDAZOLE]	DILI positive (training set)
CC(=O)Nc1nnc(S(N)(=O)=O)s1 [ACETAZOLAMIDE]	DILI positive (training set)
CN(C)CCC=C1c2ccccc2CCc2ccccc21.Cl [AMITRIPTYLINE HYDROCHLORIDE]	DILI negative (training set)
COc1ccc(C[C@H](N)C(=O)N[C@H]2[C@@H](O)[C@H](n3cnc4c(N(C)C)ncnc43)O[C@@H]2CO)cc1 [PUROMYCIN]	DILI positive (training set)
CO[C@@]1(NC(=O)C2SC(=C(C(N)=O)C(=O)O)S2)C(=O)N2C(C(=O)O)=C(CSc3nnnn3C)CS[C@@H]21 (stereo not given in full) [CEFOTETAN]	DILI negative (test set)

same assay, conditions: Liver

Compound	Hepatotoxicity
Clc1ccccc1CN1CCc2sccc2C1 [TICLOPIDINE]	DILI positive (training set)
Nc1ccc(S(N)(=O)=O)cc1 [SULFANILAMIDE]	DILI positive (test set)
CC(C)NCC(O)c1ccc(O)c(O)c1.Cl (stereo not given) [ISOPROTERENOL HYDROCHLORIDE]	DILI negative (training set)
COc1cc(Cc2cnc(N)nc2N)cc(OC)c1OC [TRIMETHOPRIM]	DILI positive (test set)
